Blank lines part the entries; values can stand above or below the molecule they belong to.
Key:
[1] = tested on: Tiki1 expression; test: Regulation of Tiki1 and Dkk1 expression by maternal Wnt signaling, RT-PCR; assay type: in vivo; details: Xenopus embryos, RT-PCR at stage 10.5
Method: FIG. 3C is a gel showing that Tiki1 expression is regulated by maternal Wnt signaling. Whole embryos were used for LiCl or UV treatment. 20 or 40 pg of Xwnt8 mRNA was injected into ventral marginal zone (VMZ) at 4 to 8-cell stage and VMZ was dissected at stage 10.5 for RT-PCR. ΔNTCF mRNA (1 or 2 ng) was injected into dorsal marginal zone (DMZ) at 4 to 8-cell stage and DMZ was dissected at stage 10.5 for RT-PCR. Con: control.
SO formation requires maternal Wnt/β-catenin signaling (De Robertis, E. M. et al., Annu Rev Cell Dev Biol 20, 285-308 (2004); Harland, R. et al., Annu Rev Cell Dev Biol 13, 611-667 (1997)), which we found is necessary and sufficient for Tiki1 (and Dkk1) expression.

[2] = tested on: Xenopus embryos; test: Organizer gene expression in morpholino-injected whole Xenopus embryos (Table 1); assay type: in vivo; set-up: Whole embryos displaying change in gene expression: Reduced, Percentage (%): concentration or dose not given beside the values
Method: (§1) A functional cDNA expression screen was performed using arrayed Xenopus cDNAs to identify novel genes involved in AP patterning and Wnt signaling. Procedures for embryo manipulation, reverse transcription PCR and in situ hybridization were performed as previously described (Tamai, K. et al., Nature 407, 530-535 (2000)). The Arrayed Xenopus tropicalis full length cDNAs were used for the screening as performed previously (Kato, Y. et al., Nature 418, 641-646 (2002)). cDNA pools (in the CS107 vector) that contain 96 independent clones were transcribed in vitro using SP6 polymerase, and the resulting mRNA pools were injected into the dorsal side of the embryo at 4-cell stage at the dose of 10 ng RNA/embryo. Injected embryos were scored at stage 30-31 for enlarged or diminished anterior development. The positive pools were divided into smaller pools and the same process was repeated until a single cDNA was identified.
HA-Tiki1 mRNA injection rescued the effect of Tiki1MO on all head organizer genes examined (Table 1).

[3] = tested on: Xenopus embryos; test: Tiki1MO anterior development/head formation phenotype; assay type: in vivo; details: 20 ng injected into two dorsal blastomeres of 8-cell stage embryos
Method: (§2) 20 ng of Tiki1MO was injected into two dorsal blastomeres of 8-cell stage embryos.

[4] = tested on: Xenopus embryos; test: Anterior neural marker expression in morpholino-injected whole embryos (Table 2); assay type: in vivo; details: stage 16
Method: as §1
The specific expression in and the requirement for the formation of the head organizer imply Tiki1 function in anterior neural patterning. Tiki1MO was injected with fluorescein dextran (FLD, as a lineage tracer) into one dorsal-animal blastomeres at the 8-cell stage and analyzed expression of anterior neural markers at stage 16. Tiki1 MO suppressed the expression of, in the injected half of the embryo, forebrain marker BF1 and Otx2 (Table 2). […] HA-Tiki1 mRNA injection rescued the expression of BF1, Otx2, and En2 in Tiki1MO-injected embryos (Table 2).

[5] = tested on: Xenopus Tiki1 protein synthesis; test: Tiki1 protein synthesis in embryos with morpholino, Western blotting of animal caps; assay type: in vivo
Method: FIG. 4A is a gel showing that Xenopus Tiki1 protein synthesis is specifically targeted by an antisense morpholino oligonucleotide (MO). 500 pg mRNA for Tiki1-FLAG (targeted by MO) or HA-Tiki1 (resistant to MO) were injected with or without the Tiki1MO (5, 10, 20, 40 ng) into the animal pole at the 2-cell stage, and animal caps were dissected at stage 10 for Western blotting.
as §2

[6] = tested on: Wnt3a signaling; test: TOPFLASH reporter assay, Wnt3a co-transfected with Tiki1 or Tiki2 in HEK293T cells; assay type: cell-based, human
From the text: Wnt3a and Tiki1 or Tiki2 were co-transfected. The TOPFLASH reading (normalized to Renilla) in Wnt3a alone was set as 100. DNA transfection amounts are shown per well in a standard 24-well plate format. Representative data from one of three independent experiments is shown.
The enlarged head phenotype by Tiki1 overexpression is indistinguishable from that by overexpression of Dkk1, a Wnt/LRP6 antagonist (MacDonald, B. T. et al., Dev Cell 17, 9-26 (2009); Glinka, A. et al., Nature 391, 357-362 (1998)). […] Thus Tiki1 likely acts at or upstream of Wnt receptors. […] Xenopus Tiki2, and human Tiki1 and Tiki2 also behaved as Wnt antagonists in Xenopus embryos, HEK293T cells (FIG. 2C) and mouse L cells (FIG. 5A).

[7] = biological target: Recombinant human WNT3A protein (Homo sapiens, UniProt P56704); test: In vitro incubation of recombinant WNT3A with purified protein, Triton X-114 phase separation; assay type: biochemical; details: purified protein incubated with recombinant human WNT3A
Method: FIG. 6G is a gel showing that recombinant WNT3A was incubated with Krm2N or Tiki2N purified from WCL (top) or from CM (bottom) and was subjected to Triton X-114 phase separation.
FIG. 6H is a gel showing that Recombinant WNT3A was incubated with Krm2N or Tiki2N or Tiki2NΔ. purified from WCL and was subjected to Triton X-114 phase separation.
Recombinant human Tiki2N, which is the ectodomain harboring the conserved Tiki domain (FIG. 6J), was purified, via tandem affinity procedures from HEK293T cell extracts or CM.

[8] = gene Chd, stage 10.5, injected in two dorsal blastomeres at 8-cell stage
[9] = gene Gsc st.13 (prechordal plate, neurula stage)

Chain of Recombinant human WNT3A protein (P56704 19-352): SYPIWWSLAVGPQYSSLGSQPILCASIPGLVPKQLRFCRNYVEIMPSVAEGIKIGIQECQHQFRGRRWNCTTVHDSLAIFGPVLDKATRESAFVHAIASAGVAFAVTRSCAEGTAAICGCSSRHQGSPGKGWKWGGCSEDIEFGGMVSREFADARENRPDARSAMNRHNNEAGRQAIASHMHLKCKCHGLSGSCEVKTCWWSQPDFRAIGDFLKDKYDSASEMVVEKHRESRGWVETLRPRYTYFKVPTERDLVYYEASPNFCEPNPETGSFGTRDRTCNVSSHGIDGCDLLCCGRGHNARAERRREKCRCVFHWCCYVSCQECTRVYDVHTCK

Molecule: [Cl-].[Li+] [LiCl]
Tiki1 and Dkk1 expression [1]: induced Tiki1 and Dkk1 expression

Molecule: Tiki1 MO: morpholino antisense oligonucleotide against Tiki1, 5′-CCAAATGATTACCATCATAGCTCAG-3′ (SEQ ID NO:13) (all phosphorodiamidate morpholino (PMO))
Whole embryos displaying change in gene expression: Absent, Percentage (%) [2, 8]: 0%
Whole embryos displaying change in gene expression: NC (No Change), Percentage (%) [2, 8]: 64%
Whole embryos displaying change in gene expression: Reduced, Percentage (%) [2, 8]: 36%
Whole embryos displaying change in gene expression: Absent, Percentage (%) ([2]; gene Dkk1, stage 10.5): 25%
Whole embryos displaying change in gene expression: NC (No Change), Percentage (%) ([2]; gene Dkk1, stage 10.5): 35%
Whole embryos displaying change in gene expression: Reduced, Percentage (%) ([2]; gene Dkk1, stage 10.5): 40%
Whole embryos displaying change in gene expression: Absent, Percentage (%) [2, 9]: 35%
Whole embryos displaying change in gene expression: NC (No Change), Percentage (%) [2, 9]: 33%
Whole embryos displaying change in gene expression: Reduced, Percentage (%) [2, 9]: 32%
Whole embryos displaying change in gene expression: Absent, Percentage (%) ([2]; gene Gsc, stage 10.5): 0%
Whole embryos displaying change in gene expression: NC (No Change), Percentage (%) ([2]; gene Gsc, stage 10.5): 34%
Whole embryos displaying change in gene expression: Reduced, Percentage (%) ([2]; gene Gsc, stage 10.5): 66%
Whole embryos displaying change in gene expression: Absent, Percentage (%) ([2]; gene Lim1, stage 10.5): 28%
Whole embryos displaying change in gene expression: NC (No Change), Percentage (%) ([2]; gene Lim1, stage 10.5): 18%
Whole embryos displaying change in gene expression: Reduced, Percentage (%) ([2]; gene Lim1, stage 10.5): 54%
Whole embryos displaying change in gene expression: Absent, Percentage (%) ([2]; gene Otx2, stage 10.5): 7%
Whole embryos displaying change in gene expression: NC (No Change), Percentage (%) ([2]; gene Otx2, stage 10.5): 33%
Whole embryos displaying change in gene expression: Reduced, Percentage (%) ([2]; gene Otx2, stage 10.5): 60%
Whole embryos displaying change in gene expression: Absent, Percentage (%) ([2]; gene Xnot, stage 10.5): 0%
Whole embryos displaying change in gene expression: NC (No Change), Percentage (%) ([2]; gene Xnot, stage 10.5): 87%
Whole embryos displaying change in gene expression: Reduced, Percentage (%) ([2]; gene Xnot, stage 10.5): 13%
Whole embryos displaying change in gene expression: Absent, Percentage (%) ([2]; gene Xnr3, stage 10.5): 0%
Whole embryos displaying change in gene expression: NC (No Change), Percentage (%) ([2]; gene Xnr3, stage 10.5): 93%
Whole embryos displaying change in gene expression: Reduced, Percentage (%) ([2]; gene Xnr3, stage 10.5): 7%
Injected embryos that developed anterior defects [3]: roughly 50%
Whole embryos displaying change in gene expression: NC (No Change), Percentage (%) ([4]; gene BF1): 14%
Whole embryos displaying change in gene expression: Reduced, Percentage (%) ([4]; gene BF1): 23%
Whole embryos displaying change in gene expression: increased, Percentage (%) ([4]; gene BF1): 0%
Whole embryos displaying change in gene expression: Absent, Percentage (%) ([4]; gene BF1, injected into one dorsal-animal blastomere at 8-cell stage): 63%
Whole embryos displaying change in gene expression: Absent, Percentage (%) ([4]; gene En-2): 40%
Whole embryos displaying change in gene expression: NC (No Change), Percentage (%) ([4]; gene En-2): 35%
Whole embryos displaying change in gene expression: Reduced, Percentage (%) ([4]; gene En-2): 25%
Whole embryos displaying change in gene expression: increased, Percentage (%) ([4]; gene En-2): 0%
Whole embryos displaying change in gene expression: Absent, Percentage (%) ([4]; gene HoxB9): 0%
Whole embryos displaying change in gene expression: NC (No Change), Percentage (%) ([4]; gene HoxB9): 100%
Whole embryos displaying change in gene expression: Reduced, Percentage (%) ([4]; gene HoxB9): 0%
Whole embryos displaying change in gene expression: increased, Percentage (%) ([4]; gene HoxB9): 0%
Whole embryos displaying change in gene expression: Absent, Percentage (%) ([4]; gene Otx2): 35%
Whole embryos displaying change in gene expression: NC (No Change), Percentage (%) ([4]; gene Otx2): 35%
Whole embryos displaying change in gene expression: Reduced, Percentage (%) ([4]; gene Otx2): 30%
Whole embryos displaying change in gene expression: increased, Percentage (%) ([4]; gene Otx2): 0%
Synthesis of HA-Tiki1 ([5]; HA-Tiki1 mRNA lacks the MO complementary sequence): unable to block the synthesis
Synthesis of exogenously expressed Tiki1 (Tiki1-FLAG) ([5]; Tiki1-FLAG mRNA targeted by MO, animal caps stage 10): specifically blocked the synthesis

B1: Human Tiki1: Human Tiki1 (Q86V40/LOC129293) (SEQ ID NO:1), expressed by transfection (protein, listed as Homo sapiens)
chain: MSPWSWFLLQTLCLLPTGAASRRGAPGTANCELKPQQSELNSFLWTIKRDPPSYFFGTIHVPYTRVWDFIPDNSKEAFLQSSIVYFELDLTDPYTISALTSCQMLPQGENLQDVLPRDIYCRLKRHLEYVKLMMPLWMTPDQRGKGLYADYLFNAIAGNWERKRPVWVMLMVNSLTEVDIKSRGVPVLDLFLAQEAERLRKQTGAVEKVEEQCHPLNGLNFSQVIFALNQTLLQQESLRAGSLQIPYTTEDLIKHYNCGDLSSVILSHDSSQVPNFINATLPPQERITAQEIDSYLRRELIYKRNERIGKRVKALLEEFPDKGFFFAFGAGHFMGNNTVLDVLRREGYEVEHAPAGRPIHKGKSKKTSTRPTLSTIFAPKVPTLEVPAPEAVSSGHSTLPPLVSRPGSADTPSEAEQRFRKKRRRSQRRPRLRQFSDLWVRLEESDIVPQLQVPVLDRHISTELRLPRRGHSHHSQMVASSACLSLWTPVFWVLVLAFQTETPLL
Wnt3a signaling, TOPFLASH reporter [6]: inhibit Wnt3a signaling

Partitioning of WNT3A in Triton X-114 phase separation after in vitro incubation [7]: remained in the detergent phase
B2: Tiki2NΔ: deletion mutant lacking a segment of the Tiki domain, inactive in modifying WNT3A (protein)
chain: RPQPPDGGQCRPPGSQRDLNSFLWTIRRDPPAYLFGTIHVPYTRVWDFIPDNSKAAFQASTRVYFELDLTDPYTISALASCQLLPHGENLQDVLPHELYWRLKRHLDYVKLMMPSWMTPAQRGKGLYADYLFNAIAGNWERKRPVWVMLMVNSLTERDVRFRGVPVLDLYLAQQAEKMKKTTGAVEQVEEQCHPLNNGLNFSQVLFALNQTLLQQESVRAGSLQASYTTEDLIKHYNCGDLSAVIFNHDTSQLPNFINTTLPPHEQVTAQEIDSYFRQELIYKRNERMGKRVMALLRENEDKICFFAFGAGHFLGNNTVIDILRQAGLEVDHTPAGQAIHSPAPQSPAPSPEGTSTSPAPVTPAAAVPEAPSVTPTAPPEDEDPALSPHLLLPDSLSQLEEFGRQRKWHKRQSTHQRPRQFNDLWVRIEDSTTASPPPLPLQPTHSSGTAKPPFQLSDQLQQQDPPG
modifications: left off: small tags and cut ends

Partitioning of WNT3A in Triton X-114 phase separation after in vitro incubation [7]: remained in the detergent phase
B3: KrmN: control recombinant protein, ectodomain of the transmembrane Kremen protein (protein, UniProt Q8NCW0 26-364, looked up)
extracellular domain: GSLHSPGLSECFQVNGADYRGHQNRTGPRGAGRPCLFWDQTQQHSYSSASDPHGRWGLGAHNFCRNPDGDVQPWCYVAETEEGIYWRYCDIPSCHMPGYLGCFVDSGAPPALSGPSGTSTKLTVQVCLRFCRMKGYQLAGVEAGYACFCGSESDLARGRLAPATDCDQICFGHPGQLCGGDGRLGVYEVSVGSCQGNWTAPQGVIYSPDFPDEYGPDRNCSWALGPPGAALELTFRLFELADPRDRLELRDAASGSLLRAFDGARPPPSGPLRLGTAALLLTFRSDARGHAQGFALTYRGLQDAAEDPEAPEGSAQTPAAPLDGANVSCSPRPGAPPAA
modifications: extracellular domain

Reference: patent publication US20130101582A1, “Tiki1 and Tiki2, Wnt Inhibitors” (CHILDREN'S MEDICAL CENTER CORPORATION, priority 2010, published 2013)
